As usually defined, the IC50 is the midpoint of a concentration-inhibition curve. The Emax is the size of the effect at its maximum, as opposed to the concentration needed.

The source made the active and inactive calls. The calls are words filed in the database; no cut-off is given here.

The source of these data is ChEMBL document CHEMBL5120964, “Novel Antagonist of the Type 2 Lysophosphatidic Acid Receptor (LPA2), UCM-14216, Ameliorates Spinal Cord Injury in Mice” (J Med Chem, 2022).

In data set [1] the target is T1, Lysophosphatidic acid receptor 2 (Homo sapiens, UniProt Q9HBW0). The data set can be described thus: Antagonist activity at LPA2 receptor (unknown origin) expressed in cells assessed as blockade of LPA-induced calcium mobilization measured after 120 secs by Fluo-4 NW dye based assay. The data set is classed as functional, cell-based.
For data set [2], the target named is T1, Lysophosphatidic acid receptor 2. The data set is described as follows: Antagonist activity at LPA2 receptor (unknown origin) expressed in cells assessed as maximal blockade of LPA-induced calcium mobilization at 10 uM measured after 120 secs by Fluo-4 NW dye based assay relative to control. The data set is classed as functional, cell-based. As to conditions: filed as antagonist, time 120.0 sec. (In general: A change in cytosolic calcium serves as a functional read-out for many receptors and channels.)

Data set [3] concerns the target T2, Lysophosphatidic acid receptor 3 (Homo sapiens) (UniProt Q9UBY5).
T2 sequence (whole entry): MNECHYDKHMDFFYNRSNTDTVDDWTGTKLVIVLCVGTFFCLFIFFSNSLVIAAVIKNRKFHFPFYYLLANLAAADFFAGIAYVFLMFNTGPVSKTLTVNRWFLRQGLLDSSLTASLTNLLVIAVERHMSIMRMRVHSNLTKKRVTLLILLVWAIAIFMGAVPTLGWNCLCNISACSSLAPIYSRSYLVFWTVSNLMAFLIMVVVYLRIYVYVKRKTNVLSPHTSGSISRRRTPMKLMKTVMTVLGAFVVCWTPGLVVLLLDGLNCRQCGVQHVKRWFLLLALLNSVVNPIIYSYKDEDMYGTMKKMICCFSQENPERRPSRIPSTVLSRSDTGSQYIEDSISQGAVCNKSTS
The data set is described as follows: Antagonist activity at LPA3 receptor (unknown origin) expressed in cells assessed as maximal blockade of LPA-induced calcium mobilization at 10 uM measured after 120 secs by Fluo-4 NW dye based assay relative to control. The class given is functional, cell-based. The following applies: filed as antagonist, time 120.0 sec.

A short description of data set [4]: Metabolic stability in human liver microsomes assessed as half life by HPLC-MS analysis. The class given is ADME, Microsome. In general terms: Microsomes from liver hold many membrane-bound enzymes, among them those of drug oxidation.
The nature of data set [5]: Plasma concentration in C57B1/6J mouse at 25 mg/kg, ip measured after 0.5 hrs by HPLC-MS analysis.
The test system of data set [6] is Mus musculus. The data set can be described thus: Protection of spinal cord injury-induced locomotor defect in C57B1/6J mouse model assessed as frequent stepping at 25 mg/kg, ip treated 35 days after post injury for 10 consecutive days. The class given is functional, organism-based. The following applies: time 35.0 day.
Data set [7] concerns Mus musculus. The data set is described as follows: Protection of spinal cord injury-induced locomotor defect in C57B1/6J mouse model assessed as increase in locomotor activity at 25 mg/kg, ip treated for 10 consecutive days. The data set is classed as functional, organism-based.
In data set [8] the test system is Mus musculus. The data set can be described thus: Protection of spinal cord injury-induced locomotor defect in C57B1/6J mouse model assessed as increase in motor skills at 25 mg/kg, ip treated 35 days after post injury for 10 consecutive days. As to conditions: time 35.0 day. The data set is classed as functional, organism-based.

T1 sequence (Q9HBW0 whole entry): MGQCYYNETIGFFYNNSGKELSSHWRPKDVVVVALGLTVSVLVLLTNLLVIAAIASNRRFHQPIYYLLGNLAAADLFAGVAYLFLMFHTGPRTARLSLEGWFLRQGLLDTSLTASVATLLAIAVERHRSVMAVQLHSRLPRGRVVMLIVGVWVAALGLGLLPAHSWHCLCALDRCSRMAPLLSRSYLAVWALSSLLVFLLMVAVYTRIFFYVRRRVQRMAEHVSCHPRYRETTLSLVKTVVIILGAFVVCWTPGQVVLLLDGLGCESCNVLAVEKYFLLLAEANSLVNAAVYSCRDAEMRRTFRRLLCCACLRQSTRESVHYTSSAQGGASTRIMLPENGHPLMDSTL

Take `Cc1[nH]nc(-c2ccc(OCc3nnn[nH]3)cc2O)c1Oc1ccc(F)cc1F`: in data set [1], the IC50 was determined as 31 µM.
Consider `Cc1noc(-c2ccc(OCC(=O)O)cc2O)c1Oc1ccc(Cl)cc1Cl`, for which the maximum response (Emax) in data set [2] is 58%; in data set [3] it was 71%.
On to `Cc1[nH]nc(-c2ccc(OCC(=O)O)cc2O)c1Oc1ccc(Cl)cc1Cl`, for which the t1/2 in data set [4] turned out to be 1.02 h.
`Cc1[nH]nc(-c2ccc(OCc3nnn[nH]3)cc2O)c1Oc1ccc(Cl)cc1Cl` displayed a concentration at 0.5 h in data set [5] of 103000 ng/g. For the same molecule, the result with Mus musculus [6], with Mus musculus [7] and with Mus musculus [8] was Active.
